Assay results taken from article PMC7156458, “Synthetic biology based construction of biological activity-related library of fungal decalin-containing diterpenoid pyrones” (Nature Communications, 2020).

Molecular target: Aβ42 (Homo sapiens, UniProt P05067)
Assay: Th-T (thioflavin-T) assay of Aβ42 aggregation
Format: biochemical

Aβ42, sequence (P05067 672-713): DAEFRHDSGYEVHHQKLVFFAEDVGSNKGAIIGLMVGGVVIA

Question: Which results are given for `C=C1CCC2C(C)(CCC=C(C)C)C(O)CCC2(C)C1Cc1c(OC)oc(CO)c(C)c1=O` (stereo not drawn) [Compound 12]?
Answer: Fig. 7a Th-T reading, mean of three wells (column suffix _20, reading M101): 2.081; Fig. 7a Th-T reading, mean of three wells (column suffix _20, reading M102): 2.083; Fig. 7a Th-T reading, mean of three wells (column suffix _20, reading M103): 2.082; Fig. 7a Th-T reading, mean of three wells (column suffix _20, reading M104): 2.11; Fig. 7a Th-T reading, mean of three wells (column suffix _20, reading M105): 2.097; Fig. 7a Th-T reading, mean of three wells (column suffix _20, reading M106): 2.107; Th-T fluorescence, mean of three wells (Fig. 7a) (column suffix _50, measurement M19): 1.719; Th-T fluorescence, mean of three wells (Fig. 7a) (column suffix _50, measurement M20): 1.709; Th-T fluorescence, mean of three wells (Fig. 7a) (column suffix _50, measurement M21): 1.707; Th-T fluorescence, mean of three wells (Fig. 7a) (column suffix _50, measurement M22): 1.694; Th-T fluorescence, mean of three wells (Fig. 7a) (column suffix _50, measurement M23): 1.672; Th-T fluorescence, mean of three wells (Fig. 7a) (column suffix _50, measurement M24): 1.656; Th-T fluorescence, mean of three wells (Fig. 7a) (column suffix _50, measurement M25): 1.634; Th-T fluorescence, mean of three wells (Fig. 7a) (column suffix _50, measurement M26): 1.64; Th-T fluorescence, mean of three wells (Fig. 7a) (column suffix _50, measurement M27): 1.6183; Th-T fluorescence, mean of three wells (Fig. 7a) (column suffix _50, measurement M28): 1.623; Th-T fluorescence, mean of three wells (Fig. 7a) (column suffix _50, measurement M29): 1.606; Th-T assay signal, mean of three wells (Fig. 7a) (column suffix _50, reading M1): 1.526; Th-T assay signal, mean of three wells (Fig. 7a) (column suffix _50, reading M2): 1.765; Th-T assay signal, mean of three wells (Fig. 7a) (column suffix _50, reading M3): 2.409; Th-T assay signal, mean of three wells (Fig. 7a) (column suffix _50, reading M4): 2.663; Th-T assay signal, mean of three wells (Fig. 7a) (column suffix _50, reading M5): 2.734; Th-T assay signal, mean of three wells (Fig. 7a) (column suffix _50, reading M6): 2.555; Th-T assay signal, mean of three wells (Fig. 7a) (column suffix _50, reading M7): 2.454; Th-T assay signal, mean of three wells (Fig. 7a) (column suffix _50, reading M8): 2.181; Th-T assay signal, mean of three wells (Fig. 7a) (column suffix _50, reading M9): 2.034; Th-T assay signal, mean of three wells (Fig. 7a) (column suffix _50, reading M10): 1.99; Th-T assay signal, mean of three wells (Fig. 7a) (column suffix _50, reading M11): 1.977; Th-T assay signal, mean of three wells (Fig. 7a) (column suffix _50, reading M12): 1.8801; Th-T assay signal, mean of three wells (Fig. 7a) (column suffix _50, reading M13): 1.841; Th-T assay signal, mean of three wells (Fig. 7a) (column suffix _50, reading M14): 1.819; Th-T assay signal, mean of three wells (Fig. 7a) (column suffix _50, reading M15): 1.788; Th-T assay signal, mean of three wells (Fig. 7a) (column suffix _50, reading M16): 1.774; Th-T assay signal, mean of three wells (Fig. 7a) (column suffix _50, reading M17): 1.76; Th-T assay signal, mean of three wells (Fig. 7a) (column suffix _50, reading M18): 1.746; Fig. 7a Th-T reading, mean of three wells (column suffix _50, reading M85): 1.4; Fig. 7a Th-T reading, mean of three wells (column suffix _50, reading M86): 1.399; Fig. 7a Th-T reading, mean of three wells (column suffix _50, reading M87): 1.399; Fig. 7a Th-T reading, mean of three wells (column suffix _50, reading M88): 1.392; Fig. 7a Th-T reading, mean of three wells (column suffix _50, reading M89): 1.396; Fig. 7a Th-T reading, mean of three wells (column suffix _50, reading M90): 1.401; Fig. 7a Th-T reading, mean of three wells (column suffix _50, reading M91): 1.4; Fig. 7a Th-T reading, mean of three wells (column suffix _50, reading M92): 1.405; Fig. 7a Th-T reading, mean of three wells (column suffix _50, reading M93): 1.424; Fig. 7a Th-T reading, mean of three wells (column suffix _50, reading M94): 1.4149; Fig. 7a Th-T reading, mean of three wells (column suffix _50, reading M95): 1.419; Fig. 7a Th-T reading, mean of three wells (column suffix _50, reading M96): 1.4015; Fig. 7a Th-T reading, mean of three wells (column suffix _50, reading M97): 1.401; Fig. 7a Th-T reading, mean of three wells (column suffix _50, reading M98): 1.397; Fig. 7a Th-T reading, mean of three wells (column suffix _50, reading M99): 1.397; Fig. 7a Th-T reading, mean of three wells (column suffix _50, reading M100): 1.41; Fig. 7a Th-T reading, mean of three wells (column suffix _50, reading M101): 1.399; Fig. 7a Th-T reading, mean of three wells (column suffix _50, reading M102): 1.3937; Fig. 7a Th-T reading, mean of three wells (column suffix _50, reading M103): 1.417; Fig. 7a Th-T reading, mean of three wells (column suffix _50, reading M104): 1.419; Fig. 7a Th-T reading, mean of three wells (column suffix _50, reading M105): 1.42; Fig. 7a Th-T reading, mean of three wells (column suffix _50, reading M106): 1.412; Th-T fluorescence, mean of three wells (compound at 10, reading M41 of time course): 3.264; Th-T fluorescence, mean of three wells (compound at 10, reading M42 of time course): 3.266; Th-T fluorescence, mean of three wells (compound at 10, reading M43 of time course): 3.271; Th-T fluorescence, mean of three wells (compound at 10, reading M44 of time course): 3.34; Th-T fluorescence, mean of three wells (compound at 10, reading M45 of time course): 3.373; Th-T fluorescence, mean of three wells (compound at 10, reading M46 of time course): 3.378; Th-T fluorescence, mean of three wells (compound at 10, reading M47 of time course): 3.37; Th-T fluorescence, mean of three wells (compound at 10, reading M48 of time course): 3.386; Th-T fluorescence, mean of three wells (compound at 10, reading M49 of time course): 3.382; Th-T fluorescence, mean of three wells (compound at 10, reading M50 of time course): 3.418; Th-T fluorescence, mean of three wells (compound at 10, reading M51 of time course): 3.408; Th-T fluorescence, mean of three wells (compound at 10, reading M52 of time course): 3.423; Th-T fluorescence, mean of three wells (compound at 10, reading M53 of time course): 3.4353; Th-T fluorescence, mean of three wells (compound at 10, reading M54 of time course): 3.443; Th-T fluorescence, mean of three wells (compound at 10, reading M55 of time course): 3.439; Th-T fluorescence, mean of three wells (compound at 10, reading M56 of time course): 3.46; Th-T fluorescence, mean of three wells (compound at 10, reading M57 of time course): 3.454; Th-T fluorescence, mean of three wells (compound at 10, reading M58 of time course): 3.457; Th-T fluorescence, mean of three wells (compound at 10, reading M59 of time course): 3.451; Th-T fluorescence, mean of three wells (compound at 10, reading M60 of time course): 3.452; Th-T fluorescence, mean of three wells (compound at 10, reading M61 of time course): 3.431; Th-T fluorescence, mean of three wells (compound at 10, reading M62 of time course): 3.428; Th-T fluorescence, mean of three wells (compound at 20, reading M41 of time course): 2.229; Th-T fluorescence, mean of three wells (compound at 20, reading M42 of time course): 2.216; Th-T fluorescence, mean of three wells (compound at 20, reading M43 of time course): 2.22; Th-T fluorescence, mean of three wells (compound at 20, reading M44 of time course): 2.199; Th-T fluorescence, mean of three wells (compound at 20, reading M45 of time course): 2.1759; Th-T fluorescence, mean of three wells (compound at 20, reading M46 of time course): 2.17; Th-T fluorescence, mean of three wells (compound at 20, reading M47 of time course): 2.178; Th-T fluorescence, mean of three wells (compound at 20, reading M48 of time course): 2.1654; Th-T fluorescence, mean of three wells (compound at 20, reading M49 of time course): 2.1539; Th-T fluorescence, mean of three wells (compound at 20, reading M50 of time course): 2.1392; Th-T fluorescence, mean of three wells (compound at 20, reading M51 of time course): 2.1473; Th-T fluorescence, mean of three wells (compound at 20, reading M52 of time course): 2.131; Th-T fluorescence, mean of three wells (compound at 20, reading M53 of time course): 2.116; Th-T fluorescence, mean of three wells (compound at 20, reading M54 of time course): 2.151; Th-T fluorescence, mean of three wells (compound at 20, reading M55 of time course): 2.154; Th-T fluorescence, mean of three wells (compound at 20, reading M56 of time course): 2.133; Th-T fluorescence, mean of three wells (compound at 20, reading M57 of time course): 2.135; Th-T fluorescence, mean of three wells (compound at 20, reading M58 of time course): 2.143; Th-T fluorescence, mean of three wells (compound at 20, reading M59 of time course): 2.117; Th-T fluorescence, mean of three wells (compound at 20, reading M60 of time course): 2.117; Th-T fluorescence, mean of three wells (compound at 20, reading M61 of time course): 2.0819; Th-T fluorescence, mean of three wells (compound at 20, reading M62 of time course): 2.098; Th-T fluorescence, mean of three wells (compound at 50, reading M41 of time course): 1.5174; Th-T fluorescence, mean of three wells (compound at 50, reading M42 of time course): 1.513; Th-T fluorescence, mean of three wells (compound at 50, reading M43 of time course): 1.502; Th-T fluorescence, mean of three wells (compound at 50, reading M44 of time course): 1.5; Th-T fluorescence, mean of three wells (compound at 50, reading M45 of time course): 1.494; Th-T fluorescence, mean of three wells (compound at 50, reading M46 of time course): 1.488; Th-T fluorescence, mean of three wells (compound at 50, reading M47 of time course): 1.489; Th-T fluorescence, mean of three wells (compound at 50, reading M48 of time course): 1.494; Th-T fluorescence, mean of three wells (compound at 50, reading M49 of time course): 1.481; Th-T fluorescence, mean of three wells (compound at 50, reading M50 of time course): 1.475; Th-T fluorescence, mean of three wells (compound at 50, reading M51 of time course): 1.492; Th-T fluorescence, mean of three wells (compound at 50, reading M52 of time course): 1.492; Th-T fluorescence, mean of three wells (compound at 50, reading M53 of time course): 1.469
